Source: article PMC7413254 (Nature Communications, 2020)
Where two headings read alike, the source gives them in different places.

Key:
non-expressing oocytes [1] = assay: cells; type: cell-based, Xenopus laevis; conditions: non-expressing oocytes, total [3H]CQ transport, normalised to the oocyte type control
Summary of the method: (§1)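 Oocytes expressing PfCRT isoforms, or non-expressing controls, were incubated 1.5 h at 27.5 °C in ND96 buffer pH 5.5 (96 mM NaCl, 2 mM KCl, 1 mM MgCl2, 1.8 mM CaCl2, 10 mM MES, 10 mM Tris-base), measuring uptake from acidic medium into cytosol. Oocytes were washed ice-cold, SDS-lysed and counted by scintillation.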

non-expressing oocytes [2] = type: cell-based, Xenopus laevis; conditions: non-expressing oocytes, total [3H]CQ transport, normalised to the oocyte type control
Summary of the method: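 Oocytes (ten per treatment, ≥4 independent frogs/days) were preloaded by injecting VF-6 in 25 nL ND96 at pH 5.0, 5.5, 6.0 or 7.0, or Na^+-free choline buffer, then uptake run 1.5 h, 27.5 °C, ND96 pH 5.5 by default. Internal concentrations assumed ~400 nL oocyte volume.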

PfCRT^3D7 [3] = biological target: T1, PfCRT^3D7 (Plasmodium falciparum, UniProt Q8IBZ9); assay: cell-based; type: cell-based; conditions: PfCRT3D7 oocytes, total [3H]CQ transport, normalised to the oocyte type control
T1 sequence (Q8IBZ9 59-398): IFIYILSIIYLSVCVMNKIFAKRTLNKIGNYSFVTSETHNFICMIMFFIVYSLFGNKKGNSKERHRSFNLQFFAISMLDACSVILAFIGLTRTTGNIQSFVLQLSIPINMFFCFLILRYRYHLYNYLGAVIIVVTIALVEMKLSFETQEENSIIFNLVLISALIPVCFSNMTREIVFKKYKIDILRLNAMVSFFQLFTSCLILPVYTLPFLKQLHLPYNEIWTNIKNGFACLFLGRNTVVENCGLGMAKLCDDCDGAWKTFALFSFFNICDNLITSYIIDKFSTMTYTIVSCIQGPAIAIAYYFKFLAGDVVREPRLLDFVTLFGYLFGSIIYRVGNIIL
Description: The orientation of PfCRT in the parasite’s DV membrane, and also in the oocyte plasma membrane, is such that its N- and C-termini extend into the cytosol. The oocytes were suspended in a reaction buffer adjusted to pH 5.5 to mimic the pH of the DV lumen[1],[2]. In this scenario, the transport of a substrate via PfCRT from the acidic extracellular solution into the oocyte cytosol[15] is analogous to the parasite’s PfCRT-mediated efflux of a substrate from the acidic DV and into the cytosol. Unless specified otherwise, this is the direction in which substrate transport was measured in the oocyte assays.
Unless specified otherwise, the transport assays were conducted over 1.5 h at 27.5 °C and the reaction buffer was ND96 (96 mM NaCl, 2 mM KCl, 1 mM MgCl2, 1.8 mM CaCl2, 10 mM MES and 10 mM Tris-base) at pH 5.5.
Ten oocytes were washed twice with the relevant ND96 buffer. […] The assay was terminated by removing the reaction buffer and washing the oocytes with ice-cold ND96 buffer. The oocytes were lysed in 10% (w/v) sodium dodecyl sulfate (SDS) and the radioactivity accumulated within each oocyte was measured with a MicroBeta^2 microplate liquid scintillation analyser (PerkinElmer).
At least four independent experiments were performed (on different days and using oocytes from different frogs), and within each experiment measurements were made from ten oocytes per treatment.

PfCRT^Dd2 [4] = biological target: T2, PfCRT^Dd2 (Plasmodium falciparum, UniProt Q9N623, A220S/I356T/K76T/M74I/N326S/N75E/Q271E/R371I); assay: [3H]CQ uptake into Xenopus oocytes, cis-inhibition by unlabelled solute; type: cell-based; conditions: PfCRTDd2 oocytes, background [3H]CQ accumulation subtracted, normalised to oocyte type control
T2 sequence (Q9N623 whole entry A220S/I356T/K76T/M74I/N326S/N75E/Q271E/R371I): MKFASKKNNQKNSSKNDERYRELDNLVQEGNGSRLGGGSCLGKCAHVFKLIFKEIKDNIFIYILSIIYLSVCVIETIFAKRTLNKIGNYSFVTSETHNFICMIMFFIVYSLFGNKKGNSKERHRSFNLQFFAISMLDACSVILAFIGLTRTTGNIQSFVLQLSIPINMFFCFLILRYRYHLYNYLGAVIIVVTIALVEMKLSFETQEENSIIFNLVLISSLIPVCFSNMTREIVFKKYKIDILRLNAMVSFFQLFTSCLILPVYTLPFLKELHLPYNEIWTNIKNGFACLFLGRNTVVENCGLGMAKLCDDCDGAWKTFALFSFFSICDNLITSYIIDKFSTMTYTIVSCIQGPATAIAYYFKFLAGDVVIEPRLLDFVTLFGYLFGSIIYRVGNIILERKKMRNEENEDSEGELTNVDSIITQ
Summary of the method: as §1

PfCRT^Ecu1110 [5] = biological target: T3, PfCRT^Ecu1110 (Plasmodium falciparum, UniProt Q9N623, A220S/I356L/K76T/N326D); assay: as above; type: cell-based; conditions: for Uptake of [3H]CQ (% PfCRTEcu1110 control), cis-inhibition / PfCRT-mediated [3H]CQ transport, cis-inhibition (% PfCRTEcu1110 control): PfCRTEcu1110 oocytes; for Uptake of [3H]CQ (% PfCRTEcu1110 control), cis-inhibition: total [3H]CQ transport, normalised to the oocyte type control; for PfCRT-mediated [3H]CQ transport, cis-inhibition (% PfCRTEcu1110 control): background [3H]CQ accumulation subtracted, normalised to oocyte type control
T3 sequence (Q9N623 whole entry A220S/I356L/K76T/N326D): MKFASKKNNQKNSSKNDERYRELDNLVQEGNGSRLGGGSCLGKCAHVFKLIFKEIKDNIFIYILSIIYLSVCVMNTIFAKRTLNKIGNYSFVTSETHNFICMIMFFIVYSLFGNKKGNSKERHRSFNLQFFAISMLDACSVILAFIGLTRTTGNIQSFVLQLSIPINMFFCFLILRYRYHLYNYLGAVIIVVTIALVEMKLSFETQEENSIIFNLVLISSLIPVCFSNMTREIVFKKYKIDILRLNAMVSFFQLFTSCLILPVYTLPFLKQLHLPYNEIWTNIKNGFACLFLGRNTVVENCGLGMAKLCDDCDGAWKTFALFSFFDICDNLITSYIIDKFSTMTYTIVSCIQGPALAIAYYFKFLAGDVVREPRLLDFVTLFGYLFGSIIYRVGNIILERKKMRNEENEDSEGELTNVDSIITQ
Summary of the method: as §1

PfNT1 = biological target: T4, PfNT1 (Plasmodium falciparum, UniProt Q8IDM6); assay: cell-based; type: cell-based; conditions: PfNT1 oocytes, total [3H]CQ transport, normalised to the oocyte type control
T4 construct: expressed in transfected cells; host or cells: Xenopus laevis oocytes (stage V-VI), cRNA-injected
T4 sequence (Q8IDM6 whole entry): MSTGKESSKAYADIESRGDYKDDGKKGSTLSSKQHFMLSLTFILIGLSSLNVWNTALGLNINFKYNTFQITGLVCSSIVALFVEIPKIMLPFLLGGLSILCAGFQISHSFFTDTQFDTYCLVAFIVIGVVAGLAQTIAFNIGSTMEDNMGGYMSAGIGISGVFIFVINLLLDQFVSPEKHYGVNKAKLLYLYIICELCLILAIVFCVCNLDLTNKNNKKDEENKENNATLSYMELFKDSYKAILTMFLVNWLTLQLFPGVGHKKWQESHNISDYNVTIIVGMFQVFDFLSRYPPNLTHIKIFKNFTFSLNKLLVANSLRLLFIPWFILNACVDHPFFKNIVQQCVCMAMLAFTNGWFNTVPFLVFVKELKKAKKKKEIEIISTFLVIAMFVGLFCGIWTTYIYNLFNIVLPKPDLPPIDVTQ
Summary of the method: (§2)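 Transport measured in Xenopus oocytes expressing the transporters, 1.5 h at 27.5 °C in ND96 pH 5.5 unless noted. For trans-stimulation, VF-6 injected in 25 nL ND96 at pH 5.0–7.0 or Na^+-free (choline) buffer; intracellular levels based on ~400 nL oocyte volume. Ten oocytes per treatment, ≥4 experiments.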

PfCRT^Dd2 [6] = biological target: T2, PfCRT^Dd2; assay: cell-based; type: cell-based; conditions: for Uptake of [3H]CQ (% PfCRTDd2 control), trans-stimulation / PfCRT-mediated [3H]CQ transport, trans-stimulation (% PfCRTDd2 control): PfCRTDd2 oocytes; for Uptake of [3H]CQ (% PfCRTDd2 control), trans-stimulation: total [3H]CQ transport, normalised to the oocyte type control; for PfCRT-mediated [3H]CQ transport, trans-stimulation (% PfCRTDd2 control): normalised to oocyte type control; for [3H]CQ transport (% PfCRTDd2 control), trans-stimulation, PfCRTDd2: PfCRT-mediated component (background subtracted), mean ± SEM, SEM
Summary of the method: as §2

PfCRT^3D7 [7] = biological target: T1, PfCRT^3D7; assay: cell-based; type: cell-based; conditions: PfCRT3D7 oocytes; for Uptake of [3H]CQ (% PfCRT3D7 control), trans-stimulation: total [3H]CQ transport, normalised to the oocyte type control; for PfCRT-mediated [3H]CQ transport, trans-stimulation (% PfCRT3D7 control): normalised to oocyte type control
Summary of the method: as §2

PfCRT^Ecu1110 [8] = biological target: T3, PfCRT^Ecu1110; assay: cell-based; type: cell-based; conditions: for Uptake of [3H]CQ (% PfCRTEcu1110 control), trans-stimulation / PfCRT-mediated [3H]CQ transport, trans-stimulation (% PfCRTEcu1110 control): PfCRTEcu1110 oocytes; for Uptake of [3H]CQ (% PfCRTEcu1110 control), trans-stimulation: total [3H]CQ transport, normalised to the oocyte type control; for PfCRT-mediated [3H]CQ transport, trans-stimulation (% PfCRTEcu1110 control): normalised to oocyte type control; for [3H]CQ transport (% PfCRTDd2 control), trans-stimulation, PfCRTEcu1110: PfCRT-mediated component (background subtracted), sheet title says normalised to PfCRTDd2 control, mean ± SEM, SEM
Summary of the method: as §2

[9] = [test solute]i = 45 mM (30 mM for some solutes due to solubility)
[10] = [test solute]i = 5 mM (intracellular)
[11] = [test solute]i = 45 mM (intracellular; 30 mM for some solutes due to solubility)
[12] = [test solute]i = 5 mM (injected)

PPVQ [PQ-4]
Uptake of [3H]CQ (% non-expressing oocyte control), cis-inhibition (non-expressing oocytes [1]; [test solute] = 1 mM): 99 ± 5.3 % non-expressing oocyte control
Uptake of [3H]CQ (% non-expressing oocyte control), cis-inhibition (non-expressing oocytes [1]; [test solute] = 2 mM): 100 ± 3.7 % non-expressing oocyte control
Uptake of [3H]CQ (% non-expressing oocyte control), trans-stimulation (non-expressing oocytes [2]; [test solute]i = 5 mM): 99 ± 3.4 % non-expressing oocyte control
Uptake of [3H]CQ (% non-expressing oocyte control), trans-stimulation (non-expressing oocytes [2]; [9]): 100 ± 2.7 % non-expressing oocyte control
Uptake of [3H]CQ (% PfCRT3D7 control), cis-inhibition (PfCRT^3D7 [3]; [test solute] = 0.5 mM): 99 ± 3.9 % PfCRT3D7 control
Uptake of [3H]CQ (% PfCRT3D7 control), cis-inhibition (PfCRT^3D7 [3]; [test solute] = 1 mM): 99 ± 6.3 % PfCRT3D7 control
Uptake of [3H]CQ (% PfCRT3D7 control), cis-inhibition (PfCRT^3D7 [3]; [test solute] = 2 mM): 99 ± 5.3 % PfCRT3D7 control
PfCRT-mediated [3H]CQ transport, cis-inhibition (% PfCRTDd2 control) (PfCRT^Dd2 [4]; [test solute] = 0.5 mM): 68 ± 3.7 % PfCRTDd2 control
PfCRT-mediated [3H]CQ transport, cis-inhibition (% PfCRTDd2 control) (PfCRT^Dd2 [4]; [test solute] = 1 mM): 59 ± 2.1 % PfCRTDd2 control
PfCRT-mediated [3H]CQ transport, cis-inhibition (% PfCRTDd2 control) (PfCRT^Dd2 [4]; [test solute] = 2 mM): 37 ± 2.0 % PfCRTDd2 control
Uptake of [3H]CQ (% PfCRTEcu1110 control), cis-inhibition (PfCRT^Ecu1110 [5]; [test solute] = 0.5 mM): 67 ± 2.1 % PfCRTEcu1110 control
Uptake of [3H]CQ (% PfCRTEcu1110 control), cis-inhibition (PfCRT^Ecu1110 [5]; [test solute] = 1 mM): 56 ± 2.8 % PfCRTEcu1110 control
Uptake of [3H]CQ (% PfCRTEcu1110 control), cis-inhibition (PfCRT^Ecu1110 [5]; [test solute] = 2 mM): 48 ± 4.8 % PfCRTEcu1110 control
PfCRT-mediated [3H]CQ transport, cis-inhibition (% PfCRTEcu1110 control) (PfCRT^Ecu1110 [5]; [test solute] = 0.5 mM): 61 ± 3.1 % PfCRTEcu1110 control
PfCRT-mediated [3H]CQ transport, cis-inhibition (% PfCRTEcu1110 control) (PfCRT^Ecu1110 [5]; [test solute] = 1 mM): 51 ± 1.3 % PfCRTEcu1110 control
PfCRT-mediated [3H]CQ transport, cis-inhibition (% PfCRTEcu1110 control) (PfCRT^Ecu1110 [5]; [test solute] = 2 mM): 41 ± 3.2 % PfCRTEcu1110 control
[3H]CQ transport (% PfCRTEcu1110 control), cis-inhibition, PfCRTEcu1110 (PfCRT^Ecu1110 [5]; cis-inhibition, [test solute] = 2 mM, PfCRT-mediated component (background subtracted), sheet title says normalised to PfCRTDd2 control, mean ± SEM, SEM): 13 ± 0.6 % PfCRTEcu1110 control
Uptake of [3H]CQ (% PfNT1 control), trans-stimulation (PfNT1; [test solute]i = 5 mM): 100 ± 2.5 % PfNT1 control
Uptake of [3H]CQ (% PfNT1 control), trans-stimulation (PfNT1; [9]): 99 ± 3.2 % PfNT1 control
Uptake of [3H]CQ (% PfCRTDd2 control), trans-stimulation (PfCRT^Dd2 [6]; [test solute]i = 5 mM): 100 ± 3.2 % PfCRTDd2 control
Uptake of [3H]CQ (% PfCRTDd2 control), trans-stimulation (PfCRT^Dd2 [6]; [9]): 115 ± 2.9 % PfCRTDd2 control
PfCRT-mediated [3H]CQ transport, trans-stimulation (% PfCRTDd2 control) (PfCRT^Dd2 [6]; [10]): 98 ± 4.2 % PfCRTDd2 control
PfCRT-mediated [3H]CQ transport, trans-stimulation (% PfCRTDd2 control) (PfCRT^Dd2 [6]; [11]): 110 ± 1.1 % PfCRTDd2 control
[3H]CQ transport (% PfCRTDd2 control), trans-stimulation, PfCRTDd2 (PfCRT^Dd2 [6]; [12]): 98 ± 4.2 % PfCRTDd2 control
[3H]CQ transport (% PfCRTDd2 control), trans-stimulation, PfCRTDd2 (PfCRT^Dd2 [6]; [9]): 110 ± 1.1 % PfCRTDd2 control
Uptake of [3H]CQ (% PfCRT3D7 control), trans-stimulation (PfCRT^3D7 [7]; [test solute]i = 5 mM): 134 ± 2.5 % PfCRT3D7 control
Uptake of [3H]CQ (% PfCRT3D7 control), trans-stimulation (PfCRT^3D7 [7]; [9]): 165 ± 4.2 % PfCRT3D7 control
PfCRT-mediated [3H]CQ transport, trans-stimulation (% PfCRT3D7 control) (PfCRT^3D7 [7]; [10]): 129 ± 2.1 % PfCRT3D7 control
PfCRT-mediated [3H]CQ transport, trans-stimulation (% PfCRT3D7 control) (PfCRT^3D7 [7]; [11]): 159 ± 5.2 % PfCRT3D7 control
Uptake of [3H]CQ (% PfCRTEcu1110 control), trans-stimulation (PfCRT^Ecu1110 [8]; [test solute]i = 5 mM): 124 ± 2.9 % PfCRTEcu1110 control
Uptake of [3H]CQ (% PfCRTEcu1110 control), trans-stimulation (PfCRT^Ecu1110 [8]; [9]): 138 ± 3.2 % PfCRTEcu1110 control
PfCRT-mediated [3H]CQ transport, trans-stimulation (% PfCRTEcu1110 control) (PfCRT^Ecu1110 [8]; [10]): 120 ± 3.2 % PfCRTEcu1110 control
PfCRT-mediated [3H]CQ transport, trans-stimulation (% PfCRTEcu1110 control) (PfCRT^Ecu1110 [8]; [11]): 132 ± 1.1 % PfCRTEcu1110 control
[3H]CQ transport (% PfCRTDd2 control), trans-stimulation, PfCRTEcu1110 (PfCRT^Ecu1110 [8]; [12]): 36 ± 1.3 % PfCRTEcu1110 control
[3H]CQ transport (% PfCRTDd2 control), trans-stimulation, PfCRTEcu1110 (PfCRT^Ecu1110 [8]; [9]): 40 ± 1.3 % PfCRTEcu1110 control
